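How tested: cells in 96-well plates exposed to compound for 48 hours at five concentrations. Abbreviation: GI50, concentration required for 50% inhibition of growth. TGI marks complete inhibition of growth.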
Experiments:
Assay in all cases: NCI tumour cell line growth inhibition, 48 h
786-0 renal = tested on: 786-0 renal
A498 renal = tested on: A498 renal
A549 NSCLC = tested on: A549 NSCLC
ACHN renal = tested on: ACHN renal
BT-549 breast = tested on: BT-549 breast
CAKI-1 renal = tested on: CAKI-1 renal
CCRF-CEM leukemia = tested on: CCRF-CEM leukemia
COLO 205 colon = tested on: COLO 205 colon
DU-145 prostate = tested on: DU-145 prostate
EKVX NSCLC = tested on: EKVX NSCLC
HCC-2998 colon = tested on: HCC-2998 colon
HCT-116 colon = tested on: HCT-116 colon
HCT-15 colon = tested on: HCT-15 colon
HL-60(TB) leukemia = tested on: HL-60(TB) leukemia
HOP-62 NSCLC = tested on: HOP-62 NSCLC
HOP-92 NSCLC = tested on: HOP-92 NSCLC
HS 578T breast = tested on: HS 578T breast
HT29 colon = tested on: HT29 colon
IGROV1 ovarian = tested on: IGROV1 ovarian
K-562 leukemia = tested on: K-562 leukemia
KM12 colon = tested on: KM12 colon
LOX IMVI melanoma = tested on: LOX IMVI melanoma
M14 melanoma = tested on: M14 melanoma
MALME-3M melanoma = tested on: MALME-3M melanoma
MCF7 breast = tested on: MCF7 breast
MDA-MB-231 breast = tested on: MDA-MB-231 breast
MDA-MB-435 = tested on: MDA-MB-435
MDA-MB-468 breast = tested on: MDA-MB-468 breast
MOLT-4 leukemia = tested on: MOLT-4 leukemia
NCI-H226 lung = tested on: NCI-H226 lung
NCI-H23 lung = tested on: NCI-H23 lung
NCI-H460 lung = tested on: NCI-H460 lung
NCI-H522 lung = tested on: NCI-H522 lung
NCI/ADR-RES ovarian = tested on: NCI/ADR-RES ovarian
OVCAR-3 ovarian = tested on: OVCAR-3 ovarian
OVCAR-4 ovarian = tested on: OVCAR-4 ovarian
OVCAR-5 ovarian = tested on: OVCAR-5 ovarian
OVCAR-8 ovarian = tested on: OVCAR-8 ovarian
PC-3 prostate = tested on: PC-3 prostate
RPMI-8226 leukemia = tested on: RPMI-8226 leukemia
RXF 393 renal = tested on: RXF 393 renal
SF-268 CNS = tested on: SF-268 CNS
SF-295 CNS = tested on: SF-295 CNS
SF-539 CNS = tested on: SF-539 CNS
SK-MEL-2 melanoma = tested on: SK-MEL-2 melanoma
SK-MEL-28 melanoma = tested on: SK-MEL-28 melanoma
SK-MEL-5 melanoma = tested on: SK-MEL-5 melanoma
SK-OV-3 ovarian = tested on: SK-OV-3 ovarian
SN12C renal = tested on: SN12C renal
SNB-19 CNS = tested on: SNB-19 CNS
SNB-75 CNS = tested on: SNB-75 CNS
SR leukemia = tested on: SR leukemia
SW-620 colon = tested on: SW-620 colon
T-47D breast = tested on: T-47D breast
TK-10 renal = tested on: TK-10 renal
U251 CNS = tested on: U251 CNS
UACC-257 melanoma = tested on: UACC-257 melanoma
UACC-62 melanoma = tested on: UACC-62 melanoma
UO-31 renal = tested on: UO-31 renal

## Clc1ccc(CNc2nc(SCCN3CCOCC3)nc3c2cnn3CC(Cl)c2ccc(Br)cc2)cc1 (stereo not drawn)
786-0 renal
  GI50: 5.62 µM
  TGI: > 100 µM
A498 renal
  GI50: 54.1 µM
  TGI: > 100 µM
A549 NSCLC
  GI50: 4.18 µM
  TGI: > 100 µM
ACHN renal
  GI50: 4.19 µM
  TGI: > 100 µM
BT-549 breast
  GI50: 18.4 µM
  TGI: 94.6 µM
CAKI-1 renal
  GI50: 5.45 µM
  TGI: > 100 µM
CCRF-CEM leukemia
  GI50: 3.85 µM
  TGI: > 100 µM
COLO 205 colon
  GI50: 5.71 µM
  TGI: 32 µM
DU-145 prostate
  GI50: 46.4 µM
  TGI: > 100 µM
EKVX NSCLC
  GI50: 4.55 µM
  TGI: > 100 µM
HCC-2998 colon
  GI50: 4.4 µM
  TGI: > 100 µM
HCT-116 colon
  GI50: 3.81 µM
  TGI: > 100 µM
HCT-15 colon
  GI50: 3.03 µM
  TGI: 11 µM
HL-60(TB) leukemia
  GI50: 2.81 µM
  TGI: 26.8 µM
HOP-62 NSCLC
  GI50: 63 µM
  TGI: > 100 µM
HOP-92 NSCLC
  GI50: 8.71 µM
  TGI: > 100 µM
HS 578T breast
  GI50: 9.59 µM
  TGI: > 100 µM
HT29 colon
  GI50: 1.91 µM
  TGI: 4.04 µM
IGROV1 ovarian
  GI50: 65.4 µM
  TGI: > 100 µM
K-562 leukemia
  GI50: 2.85 µM
  TGI: > 100 µM
KM12 colon
  GI50: 5.39 µM
  TGI: > 100 µM
LOX IMVI melanoma
  GI50: 4.49 µM
  TGI: > 100 µM
M14 melanoma
  GI50: 6.01 µM
  TGI: > 100 µM
MALME-3M melanoma
  GI50: 3.94 µM
  TGI: 28.9 µM
MCF7 breast
  GI50: 3.45 µM
  TGI: > 100 µM
MDA-MB-231 breast
  GI50: 9.03 µM
  TGI: > 100 µM
MDA-MB-435
  GI50: 6.65 µM
  TGI: > 100 µM
MDA-MB-468 breast
  GI50: 3.3 µM
  TGI: 18.9 µM
MOLT-4 leukemia
  GI50: 2.62 µM
  TGI: 8.27 µM
NCI-H226 lung
  GI50: 5.68 µM
  TGI: > 100 µM
NCI-H23 lung
  GI50: 7.84 µM
  TGI: > 100 µM
NCI-H460 lung
  GI50: 4.57 µM
  TGI: > 100 µM
NCI-H522 lung
  GI50: 6.17 µM
  TGI: > 100 µM
NCI/ADR-RES ovarian
  GI50: 4.14 µM
  TGI: > 100 µM
OVCAR-3 ovarian
  GI50: 9.59 µM
  TGI: > 100 µM
OVCAR-4 ovarian
  GI50: 5.3 µM
  TGI: > 100 µM
OVCAR-5 ovarian
  GI50: > 100 µM
  TGI: > 100 µM
OVCAR-8 ovarian
  GI50: 17.9 µM
  TGI: > 100 µM
PC-3 prostate
  GI50: 4.3 µM
  TGI: > 100 µM
RPMI-8226 leukemia
  GI50: 3.52 µM
  TGI: > 100 µM
RXF 393 renal
  GI50: 1.72 µM
  TGI: 8.87 µM
SF-268 CNS
  GI50: 7.43 µM
  TGI: > 100 µM
SF-295 CNS
  GI50: 3.91 µM
  TGI: > 100 µM
SF-539 CNS
  GI50: 4.37 µM
  TGI: > 100 µM
SK-MEL-2 melanoma
  GI50: 13 µM
  TGI: 63.1 µM
SK-MEL-28 melanoma
  GI50: 14 µM
  TGI: > 100 µM
SK-MEL-5 melanoma
  GI50: 7.66 µM
  TGI: 21 µM
SK-OV-3 ovarian
  GI50: > 100 µM
  TGI: > 100 µM
SN12C renal
  GI50: 6.14 µM
  TGI: > 100 µM
SNB-19 CNS
  GI50: 8.34 µM
  TGI: > 100 µM
SNB-75 CNS
  GI50: 4.65 µM
  TGI: > 100 µM
SR leukemia
  GI50: 1.68 µM
  TGI: 5.63 µM
SW-620 colon
  GI50: 6.11 µM
  TGI: 91.7 µM
T-47D breast
  GI50: 3.05 µM
  TGI: > 100 µM
TK-10 renal
  GI50: 31.9 µM
  TGI: > 100 µM
U251 CNS
  GI50: 5.35 µM
  TGI: > 100 µM
UACC-257 melanoma
  GI50: 29.9 µM
  TGI: > 100 µM
UACC-62 melanoma
  GI50: 11.7 µM
  TGI: > 100 µM
UO-31 renal
  GI50: 3.65 µM
  TGI: > 100 µM
